Results as given in US20230279025A1, “KRAS G12D INHIBITORS” (Mirati Therapeutics, Inc., priority 2020, published 2023).

The compounds below were run against KRas G12D (Homo sapiens (Human), UniProt P01116, G12D) (assay: KRas G12D Binding Assay (TR-FRET displacement of Cy5 labelled tracer)). Details: GDP-loaded KRAS G12D (amino acids 1:169), 60 minute incubation at 22° C.
Experimental: After a 60 minute incubation at 22° C., the reaction was measured using a PerkinElmer EnVision multimode plate reader via TR-FRET dual wavelength detection, and the percent of control (POC) calculated using a ratiometric emission factor. […] The POC values were fit to a 4-parameter logistic curve and the IC50 value was determined as the concentration where the curve crosses 50 POC.
ND stands for “not determined.”

Chain of KRas G12D (P01116 other isoform, or with tags, fused parts or gaps G12D): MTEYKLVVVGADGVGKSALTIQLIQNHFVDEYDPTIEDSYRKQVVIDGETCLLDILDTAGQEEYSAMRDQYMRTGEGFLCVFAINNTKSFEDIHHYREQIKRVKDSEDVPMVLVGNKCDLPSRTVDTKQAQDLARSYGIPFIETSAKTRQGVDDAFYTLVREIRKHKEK

Structure (SMILES)	IC50
Oc1cc(-c2ncc3c(N4C[C@H]5CC[C@@H](C4)N5)nc(OC[C@@]45CCCN4C[C@H](F)C5)nc3c2F)c2c(Cl)cccc2c1 [Example 251, 4-(4-((1R,5S)-3,8-diazabicyclo[3.2.1]octan-3-yl)-8-fluoro-2-(((2R,7aS)-2-fluorohexahydro-1H-pyrrolizin-7a-yl)methoxy)pyrido[4,3-d]pyrimidin-7-yl)-5-chloronaphthalen-2-ol]	0.2 nM
COCCO[C@@H]1C[C@@H](COc2nc(N3C[C@H]4CC[C@@H](C3)N4)c3cnc(-c4cccc5cccc(Cl)c45)c(F)c3n2)N(C)C1 [Example 202, 4-((1R,5S)-3,8-diazabicyclo[3.2.1]octan-3-yl)-7-(8-chloronaphthalen-1-yl)-8-fluoro-2-(((2S,4R)-4-(2-methoxyethoxy)-1-methylpyrrolidin-2-yl)methoxy)pyrido[4,3-d]pyrimidine]	94 nM
Cc1ccc2[nH]ncc2c1-c1ncc2c(N3C[C@H]4CC[C@@H](C3)N4)nc(OCC34CCCN3CCC4)nc2c1F [Example 332, 4-((1R,5S)-3,8-diazabicyclo[3.2.1]octan-3-yl)-8-fluoro-7-(5-methyl-1H-indazol-4-yl)-2-((tetrahydro-1H-pyrrolizin-7a(5H)-yl)methoxy)pyrido[4,3-d]pyrimidine]	164 nM
CN1CC[C@H](Oc2nc(N3C[C@H]4CC[C@@H](C3)N4)c3cnc(-c4cccc5cccc(Cl)c45)c(F)c3n2)C1 [Example 359, 4-((1R,5S)-3,8-diazabicyclo[3.2.1]octan-3-yl)-7-(8-chloronaphthalen-1-yl)-8-fluoro-2-(((S)-1-methylpyrrolidin-3-yl)oxy)pyrido[4,3-d]pyrimidine]	1640 nM
Fc1cccc(-c2ncc3c(N4C[C@H]5CC[C@@H](C4)N5)nc(OCC45CCCN4CCC5)nc3c2F)c1OC(F)F [Example 302, 4-((1R,5S)-3,8-diazabicyclo[3.2.1]octan-3-yl)-7-(2-(difluoromethoxy)-3-fluorophenyl)-8-fluoro-2-((hexahydro-1H-pyrrolizin-7a-yl)methoxy)pyrido[4,3-d]pyrimidine]	43.6 nM
Oc1cccc(-c2ncc3c(N4C[C@H]5CC[C@@H](C4)N5)nc(OCC45CCCN4CCC5)nc3c2F)c1 [Example 271, 3-(4-((1R,5S)-3,8-diazabicyclo[3.2.1]octan-3-yl)-8-fluoro-2-((hexahydro-1H-pyrrolizin-7a-yl)methoxy)pyrido[4,3-d]pyrimidin-7-yl)phenol]	1620 nM
Fc1c(-c2cccc3cccc(Cl)c23)ncc2c(N3C[C@H]4CC[C@@H](C3)N4)nc(OCC34CCCN3CCOC4)nc12 (stereo partly drawn) [Example 200, 8a-(((4-((1R,5S)-3,8-diazabicyclo[3.2.1]octan-3-yl)-7-(8-chloronaphthalen-1-yl)-8-fluoropyrido[4,3-d]pyrimidin-2-yl)oxy)methyl)hexahydro-1H-pyrrolo[2,1-c][1,4]oxazine]	230 nM
C#Cc1cccc2cccc(-c3ncc4c(N5C[C@H]6CC[C@@H](C5)N6)nc(OC[C@@H]5CCCN5C)nc4c3F)c12 [Example 206, 4-((1R,5S)-3,8-diazabicyclo[3.2.1]octan-3-yl)-7-(8-ethynylnaphthalen-1-yl)-8-fluoro-2-(((S)-1-methylpyrrolidin-2-yl)methoxy)pyrido[4,3-d]pyrimidine]	5.1 nM
C#Cc1cccc2cc(O)cc(-c3ncc4c(N5C[C@H]6CC[C@@H](C5)N6)nc(OC[C@@]56CCCN5C[C@H](F)C6)nc4c3F)c12 [Example 243]	0.4 nM
Fc1cccc(-c2ncc3c(N4C[C@H]5CC[C@@H](C4)N5)nc(OCC45CCCN4CCC5)nc3c2F)c1C(F)(F)F [Example 292, 4-((1R,5S)-3,8-diazabicyclo[3.2.1]octan-3-yl)-8-fluoro-7-(3-fluoro-2-(trifluoromethyl)phenyl)-2-((tetrahydro-1H-pyrrolizin-7a(5H)-yl)methoxy)pyrido[4,3-d]pyrimidine]	13.1 nM
CN1CCC[C@H]1COc1nc(N2C[C@H]3CC[C@@H](C2)N3)c2cnc(-c3cccc4cccc(C#CCO)c34)c(F)c2n1 [Example 194, 3-(8-(4-((1R,5S)-3,8-diazabicyclo[3.2.1]octan-3-yl)-8-fluoro-2-(((S)-1-methylpyrrolidin-2-yl)methoxy)pyrido[4,3-d]pyrimidin-7-yl)naphthalen-1-yl)prop-2-yn-1-ol]	151 nM
Cc1c(Cl)cc2[nH]ncc2c1-c1ncc2c(N3CC4CCC(C3)N4)nc(OC[C@@]34CCCN3C[C@H](F)C4)nc2c1F (stereo in doubt) [Example 401, 4-((1R,5S)-3,8-diazabicyclo[3.2.1]octan-3-yl)-7-(6-chloro-5-methyl-1H-indazol-4-yl)-8-fluoro-2-((2-fluorotetrahydro-1H-pyrrolizin-7a(5H)-yl)methoxy)pyrido[4,3-d]pyrimidine]	2.8 nM
CC(C)c1ccncc1-c1ncc2c(N3C[C@H]4CC[C@@H](C3)N4)nc(OCC34CCCN3CCC4)nc2c1F [Example 306, 4-((1R,5S)-3,8-diazabicyclo[3.2.1]octan-3-yl)-8-fluoro-2-((hexahydro-1H-pyrrolizin-7a-yl)methoxy)-7-(4-isopropylpyridine-3-yl)pyrido[4,3-d]pyrimidine]	260 nM
N#CC[C@@H]1C[C@@H]2CN(c3nc(OCC45CCCN4CCC5)nc4c(F)c(-c5cc(O)cc6ccccc56)ncc34)C[C@H]1N2 [Example 338, 2-((1R,5S,6S)-3-(8-fluoro-7-(3-hydroxynaphthalen-1-yl)-2-((tetrahydro-1H-pyrrolizin-7a(5H)-yl)methoxy)pyrido[4,3-d]pyrimidin-4-yl)-3,8-diazabicyclo[3.2.1]octan-6-yl)acetonitrile]	33.1 nM
O[C@H]1CN2CCC[C@@]2(COc2nc(N3CC4CCC(C3)N4)c3cnc(-c4cccc5cccc(Cl)c45)c(F)c3n2)C1 [Example 223, 7a-(((4-((1R,5S)-3,8-diazabicyclo[3.2.1]octan-3-yl)-7-(8-chloronaphthalen-1-yl)-8-fluoropyrido[4,3-d]pyrimidin-2-yl)oxy)methyl)hexahydro-1H-pyrrolizin-2-ol bis-2,2,2-trifluoroacetate]	7.1 nM
N#Cc1ccccc1-c1ncc2c(N3CC4CCC(C3)N4)nc(OC[C@@]34CCCN3C[C@H](F)C4)nc2c1F (stereo in doubt) [Example 409, 2-(4-((1R,5S)-3,8-diazabicyclo[3.2.1]octan-3-yl)-8-fluoro-2-((2-fluorotetrahydro-1H-pyrrolizin-7a(5H)-yl)methoxy)pyrido[4,3-d]pyrimidin-7-yl)benzonitrile]	2230 nM
Oc1cc(Cl)c(C2CC2)c(-c2ncc3c(N4C[C@H]5CC[C@@H](C4)N5)nc(OC[C@@]45CCCN4C[C@H](F)C5)nc3c2F)c1 [Example 283, 3-(4-((1R,5S)-3,8-diazabicyclo[3.2.1]octan-3-yl)-8-fluoro-2-(((2R,7aS)-2-fluorohexahydro-1H-pyrrolizin-7a-yl)methoxy)pyrido[4,3-d]pyrimidin-7-yl)-5-chloro-4-cyclopropylphenol]	0.7 nM
Fc1c(-c2cccc3cccc(Cl)c23)ncc2c(N3C[C@H]4CC[C@@H](C3)N4)nc(OCC34CC(F)CN3CC(F)C4)nc12 (stereo partly drawn) [Example 425, 4-((1R,5S)-3,8-diazabicyclo[3.2.1]octan-3-yl)-7-(8-chloronaphthalen-1-yl)-2-((2,6-difluorohexahydro-1H-pyrrolizin-7a-yl)methoxy)-8-fluoropyrido[4,3-d]pyrimidine]	90.2 nM
CO[C@H]1CN[C@H](COc2nc(N3C[C@H]4CC[C@@H](C3)N4)c3cnc(-c4cccc5cccc(Cl)c45)c(F)c3n2)C1 [Example 351, 4-((1R,5S)-3,8-diazabicyclo[3.2.1]octan-3-yl)-7-(8-chloronaphthalen-1-yl)-8-fluoro-2-(((2S,4R)-4-methoxypyrrolidin-2-yl)methoxy)pyrido[4,3-d]pyrimidine]	94.8 nM
Fc1c(-c2cccc(Cl)c2C2CC2)ncc2c(N3C[C@H]4CC[C@@H](C3)N4)nc(OCC34CCCN3CCC4)nc12 [Example 322, 4-((1R,5S)-3,8-diazabicyclo[3.2.1]octan-3-yl)-7-(3-chloro-2-cyclopropylphenyl)-8-fluoro-2-((tetrahydro-1H-pyrrolizin-7a(5H)-yl)methoxy)pyrido[4,3-d]pyrimidine]	4.9 nM
Fc1c(-c2cccc3cccc(C4CC4)c23)ncc2c(N3C[C@H]4CC[C@@H](C3)N4)nc(OCC34CCCN3CCC4)nc12 [Example 335, 4-((1R,5S)-3,8-diazabicyclo[3.2.1]octan-3-yl)-7-(8-cyclopropylnaphthalen-1-yl)-8-fluoro-2-((tetrahydro-1H-pyrrolizin-7a(5H)-yl)methoxy)pyrido[4,3-d]pyrimidine]	25.8 nM
NCCOc1nc(N2C[C@H]3CC[C@@H](C2)N3)c2cnc(-c3cccc4cccc(Cl)c34)c(F)c2n1 [Example 261, 2-((4-((1R,5S)-3,8-diazabicyclo[3.2.1]octan-3-yl)-7-(8-chloronaphthalen-1-yl)-8-fluoropyrido[4,3-d]pyrimidin-2-yl)oxy)ethanamine]	8300 nM
Fc1c(-c2c(OC(F)(F)F)ccc3[nH]ncc23)ncc2c(N3C[C@H]4CC[C@@H](C3)N4)nc(OCC34CCCN3CCC4)nc12 [Example 258, 4-((1R,5S)-3,8-diazabicyclo[3.2.1]octan-3-yl)-8-fluoro-2-((hexahydro-1H-pyrrolizin-7a-yl)methoxy)-7-(5-(trifluoromethoxy)-1H-indazol-4-yl)pyrido[4,3-d]pyrimidine]	6.5 nM
CC(C)c1ccccc1-c1ncc2c(N3CC4CCC(C3)N4)nc(OCC34CCCN3C[C@H](F)C4)nc2c1F (stereo partly drawn) [Example 348, 4-((1R,5S)-3,8-diazabicyclo[3.2.1]octan-3-yl)-8-fluoro-2-((2-fluorotetrahydro-1H-pyrrolizin-7a(5H)-yl)methoxy)-7-(2-isopropylphenyl)pyrido[4,3-d]pyrimidine]	15.5 nM
Oc1cc(-c2ncc3c(N4C[C@H]5CC[C@@H](C4)N5)nc(OCC45CCCN4C(CF)CC5)nc3c2F)c2ccccc2c1 (mixture of isomers) [Example 384, 4-(4-((1R,5S)-3,8-diazabicyclo[3.2.1]octan-3-yl)-8-fluoro-2-((3-(fluoromethyl)tetrahydro-1H-pyrrolizin-7a(5H)-yl)methoxy)pyrido[4,3-d]pyrimidin-7-yl)naphthalen-2-ol]	2.4 nM
